Results as given in patent US5393897A, “Isolation and structure of spongistatins 5,7,8 and 9” (Arizona Board of Regents acting on behalf of Arizona State …, priority 1993, dated 1995).
≈ marks a conversion by molar mass, not a printed value. Where two headings read alike, the source gives them in different places.

Experiments:
P388 = details: IP, Q1D × 9, female mice
[1] = system: 60 human tumor cell lines; test: NCI in vitro primary screen, panel of 60 human tumor cell lines; type: cell-based; details: for GI50: Homo sapiens
Text: Only two hundred years ago, many diseases ravaged humankind. Many of these diseases now have been controlled or eradicated. In the development of the means to treat or control these diseases, work with the appropriate common experimental animals was of critical importance. With the various types of cancers, and with the HIV virus, such work is presently ongoing. The research for the treatment of various types of cancer is coordinated in the United States by the National Cancer Institute (NCI). NCI, as a government entity, has been charged with assisting anti-cancer research. To establish whether a substance has anti-cancer activity, NCI has established a variety of protocols, one of which involves testing the candidate substance against a cell line panel containing 60 human tumor cell lines. This protocol has been verified and is generally accepted throughout the scientific community. This protocol and the established statistical means of evaluating the results obtained therefrom have been fully described in the literature. See Principles & Practice of Oncology PPO Updates, Volume 3, Number 10, October 1989, by Michael R. Boyd, M.D., Ph.D., for an in depth description of the test protocol. The statistical analysis is explained in "Display and Analysis of Patterns of Differential Activity of Drugs Against Human Tumor Cell Lines: Development of Means Graph and COMPARE Algorithm" Journal of the National Cancer Institute Reports Vol. 81, No. 14, Pg. 1088, Jul. 14, 1989, by K. D. Paull et al. Both of these references are incorporated herein by this reference thereto. The effectiveness and validity of the NCI in vitro protocol continues to be verified.
^a All compounds were tested in quadruplicate at five different con-
entire panel of 60 human tumor cell lines comprising the NCI
^c Correlation coefficients from the Compare pattern-recognition
algorithm were calculated by computer using the TGI-centered
mean graph profiles of differential cellular sensitivities to 1, and
5. The TGI mean graph profile of 1 was used as the benchmark or
"seed" for all of the comparisons.

[2] = system: 60 human tumor cell lines; details: Background on spongistatins from Spongia sp; cited from earlier work
[3] = system: P388 lymphocytic leukemia cell line; test: P388 lymphocytic leukemia cell line bioassay; type: cell-based; details: Mus musculus; PS (P388); pure compound; read-out: ED50 (the source's name)

Row | SMILES | % ILS (increase in life span over controls) (P388; 40 μg/kg/dose) | potency in NCI panel [2] | IC50 [3] [ng/mL] | further results
1 | C=C(Cl)/C=C/C(O)CC(=C)CC1OC2C(C)C(OC(=O)CC3CC(OC(C)=O)CC4(CC(C)(O)CC(CC(=C)C(C)C(OC(C)=O)C(C)C(=O)CC5CC(OC)CC6(CC(O)CC(/C=C\CCCC7OC(O)(CC(O)C7C)C2O)O6)O5)O4)O3)C1O (stereo not drawn) [spongistatin 1, reference compound] | -10% | one of the most extraordinarily potent substances presently known |  | % ILS (increase in life span over controls) (P388; 25 μg/kg/dose): +33%; GI50 ([1]; NCI 60 cell line panel, read-out: panel mean GI50): 0.1 nM; GI50 ([1]; quadruplicate, five concentrations, standard errors averaged less than 15% of means, read-out: Mean Panel GI50): 0.117 nM; Compare Correlation Coefficient ([1]; TGI-centered mean graph profiles, spongistatin 1 as seed): 1.00; correlation of mean-graph fingerprint with microtubule-interactive antimitotics ([1]; pattern-recognition analyses, data not shown): closely correlated
2 | C=C(Cl)/C=C/[C@H](O)CC(=C)C[C@H]1OC2[C@@H](O)[C@]3(O)C[C@@H](O)[C@H](C)[C@H](CCC/C=C\[C@@H]4C[C@@H](O)C[C@]5(C[C@H](OC)CC(CC(=O)[C@@H](C)[C@H](OC(C)=O)[C@@H](C)C(=C)C[C@@H]6C[C@@](C)(O)C[C@]7(C[C@H](O)CC(CC(=O)O[C@@H]([C@@H]1O)[C@H]2C)O7)O6)O5)O4)O3 [spongistatin 3] |  | exceptionally potent |  | 
3 | C=C(Cl)/C=C/[C@H](O)CC(=C)C[C@H]1OC2[C@@H](O)[C@]3(O)C[C@@H](O)[C@H](C)[C@H](CCC/C=C\[C@@H]4C[C@@H](O)C[C@]5(C[C@H](OC)CC(CC(=O)[C@@H](C)[C@H](O)[C@@H](C)C(=C)C[C@@H]6C[C@@](C)(O)C[C@]7(C[C@H](OC(C)=O)CC(CC(=O)O[C@@H]([C@@H]1O)[C@H]2C)O7)O6)O5)O4)O3 [spongistatin 4] |  |  |  | % ILS (increase in life span over controls) (P388; 5 μg/kg/dose): +55%
4 | C=C/C=C/C(O)CC(=C)CC1OC2C(C)C(OC(=O)CC3CC(OC(C)=O)CC4(CC(C)(O)CC(CC(=C)C(C)C(O)C(C)C(=O)CC5CC(OC)CC6(CC(O)CC(/C=C\CCCC7OC(O)(CC(O)C7C)C2O)O6)O5)O4)O3)C1O (stereo not drawn) [spongistatin 6] | +70% |  |  | 
5 | C=C/C=C/C(O)CC(=C)CC1OC2C(C)C(OC(=O)CC3CC(OC(C)=O)CC4(CC(C)(O)CC(C=C5COC(C(C)C(=O)CC6CC(OC)CC7(CC(O)CC(/C=C\CCCC8OC(O)(CC(O)C8C)C2O)O7)O6)C5C)O4)O3)C1O (stereo not drawn) [spongistatin 8] |  |  | 0.8 (≈ 0.698 nM) | 
6 | C=C(Cl)/C=C/C(O)CC(=C)CC1OC2C(C)C(OC(=O)CC3CC(OC(C)=O)CC4(CC(C)(O)CC(C=C5COC(C(C)C(=O)CC6CC(OC)CC7(CC(O)CC(/C=C\CCCC8OC(O)(CC(O)C8C)C2O)O7)O6)C5C)O4)O3)C1O (stereo not drawn) [spongistatin 9] |  |  | < 0.1 | 
